From US11208400B2, “Substituted 6-(1H-pyrazol-1-yl)pyrimidin-4-amine derivatives and uses thereof” (Bayer Aktiengesellschaft, priority 2016, dated 2021)
Counter-ions that a name gives are not always drawn.

Each compound was assayed against T1, human Npt2a (Homo sapiens, UniProt Q06495) (assay: Npt2a activity cell based assay, membrane potential dye, CHO T-REx hNpt2a cells). Details: doxycycline-induced, depolarization by sodium phosphate influx, average or median values if tested more than once.
T1 construct: expressed in transfected cells
T1 sequence (Q06495 1-639): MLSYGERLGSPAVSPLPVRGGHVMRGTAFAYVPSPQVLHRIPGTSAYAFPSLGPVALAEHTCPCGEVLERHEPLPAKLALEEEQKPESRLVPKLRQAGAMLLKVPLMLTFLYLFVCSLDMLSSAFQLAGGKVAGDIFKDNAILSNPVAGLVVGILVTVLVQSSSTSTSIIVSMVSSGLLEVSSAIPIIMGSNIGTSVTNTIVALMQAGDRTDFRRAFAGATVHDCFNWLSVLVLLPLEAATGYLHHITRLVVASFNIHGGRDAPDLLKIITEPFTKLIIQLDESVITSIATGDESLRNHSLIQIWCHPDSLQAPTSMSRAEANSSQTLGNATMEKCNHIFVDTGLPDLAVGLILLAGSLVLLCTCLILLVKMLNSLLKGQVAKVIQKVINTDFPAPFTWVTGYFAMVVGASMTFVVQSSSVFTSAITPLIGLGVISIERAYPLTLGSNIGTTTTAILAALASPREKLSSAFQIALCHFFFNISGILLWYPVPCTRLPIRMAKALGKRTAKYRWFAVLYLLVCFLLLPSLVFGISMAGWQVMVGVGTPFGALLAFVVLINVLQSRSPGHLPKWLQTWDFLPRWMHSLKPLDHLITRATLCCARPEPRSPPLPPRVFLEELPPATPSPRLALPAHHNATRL
Method in brief: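 Cells were doxycycline-induced CHO T-REx hNpt2a, dye-loaded and pretreated 5 min at RT with 1 nM–50 μM compound in Na-free pH 7.4 buffer. IC50 was fit to the post/pre-trigger fluorescence ratio.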

Row | Structure (SMILES) | IC50 [nM]
1 | Cc1cc(C(F)F)n(-c2cc(Nc3c(C)c(-c4ccc(F)cn4)nn3C)ncn2)n1 [Example 465, 6-[5-(difluoromethyl)-3-methyl-1H-pyrazol-1-yl]-N-[3-(5-fluoropyridin-2-yl)-1,4-dimethyl-1H-pyrazol-5-yl]pyrimidin-4-amine] | 170
2 | Cc1nn(-c2cc(Nc3c(C)c(-c4ccc(F)cc4)nn3CC3CC3)ncn2)c(C)c1[N+](=O)[O-] [Example 466, N-[1-(cyclopropylmethyl)-3-(4-fluorophenyl)-4-methyl-1H-pyrazol-5-yl]-6-(3,5-dimethyl-4-nitro-1H-pyrazol-1-yl)pyrimidin-4-amine] | 11
3 | Cc1cc(C)n(-c2cc(Nc3c(C)c(-c4ccc(F)cn4)nn3C)ncn2)n1 [Example 467, 6-(3,5-dimethyl-1H-pyrazol-1-yl)-N-[3-(5-fluoropyridin-2-yl)-1,4-dimethyl-1H-pyrazol-5-yl]pyrimidin-4-amine] | 69
4 | COc1c(C)nn(-c2cc(Nc3c(C)c(-c4ccc(F)cn4)nn3C)ncn2)c1C [Example 468, N-[3-(5-fluoropyridin-2-yl)-1,4-dimethyl-1H-pyrazol-5-yl]-6-(4-methoxy-3,5-dimethyl-1H-pyrazol-1-yl)pyrimidin-4-amine] | 300
5 | Cc1nn(-c2cc(Nc3nn(C)c(-c4ccc(F)cc4)c3OC(F)F)ncn2)c(C)c1C(F)(F)F [Example 469, N-[4-(difluoromethoxy)-5-(4-fluorophenyl)-1-methyl-1H-pyrazol-3-yl]-6-[3,5-dimethyl-4-(trifluoromethyl)-1H-pyrazol-1-yl]pyrimidin-4-amine] | 5
6 | COc1c(C)nn(-c2cc(Nc3nn(C)c(-c4ccc(F)cc4)c3OC(F)F)ncn2)c1C [Example 470, N-[4-(difluoromethoxy)-5-(4-fluorophenyl)-1-methyl-1H-pyrazol-3-yl]-6-(4-methoxy-3,5-dimethyl-1H-pyrazol-1-yl)pyrimidin-4-amine] | 3
7 | Cc1nn(-c2cc(Nc3nn(C)c(-c4ccc(F)cc4)c3OC(F)F)ncn2)c(C)c1C#N [Example 471, 1-(6-{[4-(difluoromethoxy)-5-(4-fluorophenyl)-1-methyl-1H-pyrazol-3-yl]amino}pyrimidin-4-yl)-3,5-dimethyl-1H-pyrazole-4-carbonitrile] | 7
8 | Cc1c(-c2ccc(C#N)cc2)nn(C)c1Nc1cc(-n2[nH]c3c(c2=O)CCCC3)ncn1 [Example 472, 4-(1,4-dimethyl-5-{[6-(3-oxo-1,3,4,5,6,7-hexahydro-2H-indazol-2-yl)pyrimidin-4-yl]amino}-1H-pyrazol-3-yl)benzonitrile] | 880
9 | Cc1nn(-c2cc(Nc3c(C)c(-c4ccc(C(F)F)nc4)nn3C)ncn2)c(C)c1C(F)(F)F [Example 473, N-{3-[6-(difluoromethyl)pyridin-3-yl]-1,4-dimethyl-1H-pyrazol-5-yl}-6-[3,5-dimethyl-4-(trifluoromethyl)-1H-pyrazol-1-yl]pyrimidin-4-amine] | 160
10 | Cc1nn(-c2cc(Nc3c(C)c(-c4ccc(C(F)F)nc4)nn3C)ncn2)c(C)c1Cl [Example 474, 6-(4-chloro-3,5-dimethyl-1H-pyrazol-1-yl)-N-{3-[6-(difluoromethyl)pyridin-3-yl]-1,4-dimethyl-1H-pyrazol-5-yl}pyrimidin-4-amine] | 234
11 | Cc1cc(C(F)F)n(-c2cc(Nc3c(C)c(-c4ccc(OC(F)F)cc4)nn3CC3CC3)ncn2)n1 [Example 475, N-{1-(cyclopropylmethyl)-3-[4-(difluoromethoxy)phenyl]-4-methyl-1H-pyrazol-5-yl}-6-[5-(difluoromethyl)-3-methyl-1H-pyrazol-1-yl]pyrimidin-4-amine] | 215
12 | Cc1cc(C)n(-c2cc(Nc3c(C)c(-c4ccc(OC(F)F)cc4)nn3CC3CC3)ncn2)n1 [Example 476, N-{1-(cyclopropylmethyl)-3-[4-(difluoromethoxy)phenyl]-4-methyl-1H-pyrazol-5-yl}-6-(3,5-dimethyl-1H-pyrazol-1-yl)pyrimidin-4-amine] | 29
13 | Cc1nn(-c2cc(Nc3c(C)c(-c4ccc(OC(F)F)cc4)nn3CC3CC3)ncn2)c(C)c1C#N [Example 477, 1-[6-({1-(cyclopropylmethyl)-3-[4-(difluoromethoxy)phenyl]-4-methyl-1H-pyrazol-5-yl}amino)pyrimidin-4-yl]-3,5-dimethyl-1H-pyrazole-4-carbonitrile] | 98
14 | Cc1nn(-c2cc(Nc3c(C)c(-c4ccc(OC(F)F)cc4)nn3CC3CC3)ncn2)c(C)c1C(F)(F)F [Example 478, N-{1-(cyclopropylmethyl)-3-[4-(difluoromethoxy)phenyl]-4-methyl-1H-pyrazol-5-yl}-6-[3,5-dimethyl-4-(trifluoromethyl)-1H-pyrazol-1-yl]pyrimidin-4-amine] | 45
15 | Cc1nn(-c2cc(Nc3nn(C)c(-c4ccc(F)cn4)c3C)ncn2)c(C)c1Cl [Example 479, 6-(4-chloro-3,5-dimethyl-1H-pyrazol-1-yl)-N-[5-(5-fluoropyridin-2-yl)-1,4-dimethyl-1H-pyrazol-3-yl]pyrimidin-4-amine] | 18
16 | CNc1ccc(-c2nn(CC3CC3)c(Nc3cc(-n4nc(C)cc4C)ncn3)c2C)cc1 [Example 480, N-{1-(cyclopropylmethyl)-4-methyl-3-[4-(methylamino)phenyl]-1H-pyrazol-5-yl}-6-(3,5-dimethyl-1H-pyrazol-1-yl)pyrimidin-4-amine] | 375
17 | Cc1cc(C(F)F)n(-c2cc(Nc3c(C)c(-c4ccc(C(F)F)nc4)nn3C)ncn2)n1 [Example 481, 6-[5-(difluoromethyl)-3-methyl-1H-pyrazol-1-yl]-N-{3-[6-(difluoromethyl)pyridin-3-yl]-1,4-dimethyl-1H-pyrazol-5-yl}pyrimidin-4-amine] | 1400
18 | COc1ccc(-c2nn(CC3CC3)c(Nc3cc(-n4nc(C)c(Cl)c4C)ncn3)c2C)cc1 [Example 482, 6-(4-chloro-3,5-dimethyl-1H-pyrazol-1-yl)-N-[1-(cyclopropylmethyl)-3-(4-methoxyphenyl)-4-methyl-1H-pyrazol-5-yl]pyrimidin-4-amine] | 52
19 | COc1ccc(-c2nn(CC3CC3)c(Nc3cc(-n4nc(C)c(C#N)c4C)ncn3)c2C)cc1 [Example 483, 1-(6-{[1-(cyclopropylmethyl)-3-(4-methoxyphenyl)-4-methyl-1H-pyrazol-5-yl]amino}pyrimidin-4-yl)-3,5-dimethyl-1H-pyrazole-4-carbonitrile] | 1250
20 | Cc1nn(-c2cc(Nc3c(C)c(-c4ccc(F)cc4)nn3CC3CC3)ncn2)c(C)c1N [Example 484, 6-(4-amino-3,5-dimethyl-1H-pyrazol-1-yl)-N-[1-(cyclopropylmethyl)-3-(4-fluorophenyl)-4-methyl-1H-pyrazol-5-yl]pyrimidin-4-amine trifluoroacetate] | 36
21 | Cc1nn(-c2cc(Nc3c(C)c(-c4ccc(C(F)F)nc4)nn3C)ncn2)c(C)c1F [Example 485, N-{3-[6-(difluoromethyl)pyridin-3-yl]-1,4-dimethyl-1H-pyrazol-5-yl}-6-(4-fluoro-3,5-dimethyl-1H-pyrazol-1-yl)pyrimidin-4-amine] | 1350
22 | COc1ccc(-c2nn(CC3CC3)c(Nc3cc(-n4nc(C)c(C(F)(F)F)c4C)ncn3)c2C)cc1 [Example 486, N-[1-(cyclopropylmethyl)-3-(4-methoxyphenyl)-4-methyl-1H-pyrazol-5-yl]-6-[3,5-dimethyl-4-(trifluoromethyl)-1H-pyrazol-1-yl]pyrimidin-4-amine] | 59
23 | CNc1ccc(-c2nn(CC3CC3)c(Nc3cc(-n4nc(C)cc4C(F)F)ncn3)c2C)cc1 [Example 487, N-{1-(cyclopropylmethyl)-4-methyl-3-[4-(methylamino)phenyl]-1H-pyrazol-5-yl}-6-[5-(difluoromethyl)-3-methyl-1H-pyrazol-1-yl]pyrimidin-4-amine] | 150
24 | CNc1ccc(-c2nn(CC3CC3)c(Nc3cc(-n4nc(C)c(C(F)(F)F)c4C)ncn3)c2C)cc1 [Example 488, N-{1-(cyclopropylmethyl)-4-methyl-3-[4-(methylamino)phenyl]-1H-pyrazol-5-yl}-6-[3,5-dimethyl-4-(trifluoromethyl)-1H-pyrazol-1-yl]pyrimidin-4-amine] | 65
25 | COc1ccc(-c2nn(CC3CC3)c(Nc3cc(-n4nc(C)cc4C(F)F)ncn3)c2C)cc1 [Example 489, N-[1-(cyclopropylmethyl)-3-(4-methoxyphenyl)-4-methyl-1H-pyrazol-5-yl]-6-[5-(difluoromethyl)-3-methyl-1H-pyrazol-1-yl]pyrimidin-4-amine] | 270
26 | CC(=O)Cc1c(C)nn(-c2cc(Nc3c(C)c(-c4ccc(F)cc4)nn3CC3CC3)ncn2)c1C [Example 490, 1-[1-(6-{[1-(cyclopropylmethyl)-3-(4-fluorophenyl)-4-methyl-1H-pyrazol-5-yl]amino}pyrimidin-4-yl)-3,5-dimethyl-1H-pyrazol-4-yl]propan-2-one] | 6
27 | COc1ccc(-c2nn(CC3CC3)c(Nc3cc(-n4nc(C)cc4C)ncn3)c2C)cc1 [Example 491, N-[1-(cyclopropylmethyl)-3-(4-methoxyphenyl)-4-methyl-1H-pyrazol-5-yl]-6-(3,5-dimethyl-1H-pyrazol-1-yl)pyrimidin-4-amine] | 220
